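Dose response: 5 concentrations. Exposure: 48 h. Format: 96-well plates. Endpoint: linear interpolation; highest concentration if not reached. Here, GI50 denotes the concentration required for 50% inhibition of growth. TGI marks complete inhibition of growth.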
How the values were obtained:
Assay in all cases: DTP human tumour cell line panel, 48 h
TK-10 renal = system: TK-10 renal
UACC-62 melanoma = system: UACC-62 melanoma
HCC-2998 colon = system: HCC-2998 colon
LOX IMVI melanoma = system: LOX IMVI melanoma
SK-OV-3 ovarian = system: SK-OV-3 ovarian
M14 melanoma = system: M14 melanoma
SF-295 CNS = system: SF-295 CNS
MDA-MB-435 = system: MDA-MB-435
NCI-H460 lung = system: NCI-H460 lung
NCI/ADR-RES ovarian = system: NCI/ADR-RES ovarian

SMILES	TGI (TK-10 renal)	TGI (UACC-62 melanoma)	TGI (HCC-2998 colon)	TGI (LOX IMVI melanoma)	TGI (SK-OV-3 ovarian)	TGI (M14 melanoma)	TGI (SF-295 CNS)	TGI (MDA-MB-435)	TGI (NCI-H460 lung)	TGI (NCI/ADR-RES ovarian)	GI50 (TK-10 renal)	GI50 (UACC-62 melanoma)	GI50 (HCC-2998 colon)	GI50 (SK-OV-3 ovarian)	GI50 (M14 melanoma)	GI50 (SF-295 CNS)	GI50 (MDA-MB-435)	GI50 (NCI-H460 lung)	GI50 (NCI/ADR-RES ovarian)	GI50 (LOX IMVI melanoma)
CCOC(=O)C(=Cc1ccc(Oc2ccccc2)cc1)C(=O)OCC	19.4 µM	3.26 µM	24 µM	3.22 µM	20.5 µM	9.6 µM	10.6 µM	6.33 µM	40.7 µM	–	–	–	–	–	–	–	–	–	–	–
O=C(CCC(=O)C(C(=O)c1ccccc1)c1ccccc1)Nc1cccc(C(F)(F)F)c1 (stereo not drawn)	> 100 µM	> 100 µM	> 100 µM	> 100 µM	> 100 µM	> 100 µM	> 100 µM	–	> 100 µM	–	–	–	–	–	–	–	–	–	–	–
O=CC[C@H]1CCc2ccccc2C12CCC(=O)CC2	–	> 100 µM	> 100 µM	> 100 µM	> 100 µM	> 100 µM	> 100 µM	–	> 100 µM	–	–	–	–	–	–	–	–	–	–	–
Cc1ccc(S(=O)(=O)OCC23CCC(CC2)C2CC23)cc1 (stereo not drawn)	> 100 µM	> 100 µM	> 100 µM	> 100 µM	> 100 µM	> 100 µM	> 100 µM	–	> 100 µM	–	–	–	–	–	–	–	–	–	–	–
CCC(=O)c1c(NOC2OC(COC(C)=O)C(OC(C)=O)C(OC(C)=O)C2OC(C)=O)nc(OC)n(C)c1=O (stereo not drawn)	> 100 µM	> 100 µM	> 100 µM	> 100 µM	–	> 100 µM	> 100 µM	–	> 100 µM	–	–	–	–	–	–	–	–	–	–	–
c1cc(CNCCN2CCNCC2)ccn1	86.7 µM	> 100 µM	–	> 100 µM	> 100 µM	> 100 µM	> 100 µM	> 100 µM	> 100 µM	> 100 µM	–	–	–	–	–	–	–	–	–	–
O=[N+]([O-])c1cccc(-c2oc(C=Nc3ccccc3)c([N+](=O)[O-])c2-c2cccc([N+](=O)[O-])c2)c1	> 100 µM	> 100 µM	> 100 µM	> 100 µM	> 100 µM	> 100 µM	> 100 µM	–	> 100 µM	–	–	–	–	–	–	–	–	–	–	–
C1=CC=C2NCCCNC3=CC=CC=CC3=NCCCN=C2C=C1	> 100 µM	> 100 µM	> 100 µM	> 100 µM	> 100 µM	> 100 µM	> 100 µM	–	> 100 µM	–	–	–	–	–	–	–	–	–	–	–
O=C1C2C3C=CC(C2C(=O)N1COP(=O)(O)O)C1C2C(=O)N(COP(=O)(O)O)C(=O)C2C31 (stereo not drawn)	> 100 µM	> 100 µM	> 100 µM	> 64.1 µM	> 100 µM	> 100 µM	> 100 µM	–	> 59.5 µM	–	–	–	–	–	–	–	–	–	–	–
COc1cc(COC(=O)N(CC(=O)O)c2ccccc2)c([N+](=O)[O-])cc1OC	> 100 µM	> 100 µM	> 100 µM	–	> 100 µM	> 100 µM	> 100 µM	> 100 µM	> 100 µM	> 100 µM	–	–	–	–	–	–	–	–	–	–
O=c1[nH]c(=O)n(C2CC(O)C(CO)O2)cc1C1=NC1 (stereo not drawn)	> 100 µM	> 100 µM	> 100 µM	–	> 100 µM	> 100 µM	> 100 µM	> 100 µM	> 100 µM	> 100 µM	–	–	–	–	–	–	–	–	–	–
NCCCNCCCCN(CCCN)/[N+]([O-])=N\O	–	> 100 µM	> 100 µM	–	–	> 100 µM	> 100 µM	–	> 100 µM	–	–	–	–	–	–	–	–	–	–	–
CN1CCN(c2ccc3nc(-c4ccc5nc(-c6ccc(OCCC(C)(C)C)cc6)[nH]c5c4)[nH]c3c2)CC1	38.8 µM	40.1 µM	18.5 µM	–	36 µM	6.53 µM	6.22 µM	3.99 µM	3.97 µM	> 100 µM	18.2 µM	17.3 µM	5.06 µM	18 µM	2.39 µM	2.34 µM	1.97 µM	2.13 µM	35.7 µM	–
C=C(Br)N(CC)CC	> 100 µM	> 100 µM	> 100 µM	> 100 µM	> 100 µM	> 100 µM	> 100 µM	–	> 100 µM	–	–	–	–	–	–	–	–	–	–	–
O=C(CC1(O)C(=O)Nc2c(Cl)cc(Cl)cc21)c1cccc2ccccc12 (stereo not drawn)	27.3 µM	28.9 µM	–	32.5 µM	30.2 µM	30.5 µM	29.2 µM	–	31.1 µM	–	–	–	–	–	–	–	–	–	–	–
COc1cc(OC)c(C2CC=Cc3c(OC)cc(OC)c(OC)c32)cc1OC (stereo not drawn)	> 100 µM	> 100 µM	> 100 µM	> 100 µM	> 100 µM	> 100 µM	> 100 µM	–	> 100 µM	–	–	–	–	–	–	–	–	–	–	–
O=C(Cc1nc2ccccc2s1)Nc1cccc(C(F)(F)F)c1	36.1 µM	25.4 µM	29.4 µM	26.2 µM	44.3 µM	31.2 µM	30.7 µM	–	41.4 µM	–	–	–	–	–	–	–	–	–	–	–
COc1ccc(Nc2c3ccccc3nc3ccccc23)cc1	13.7 µM	–	11.2 µM	4.81 µM	16.2 µM	13.6 µM	10.4 µM	–	6.2 µM	15.5 µM	2.78 µM	–	1.92 µM	3.66 µM	0.735 µM	0.904 µM	–	0.479 µM	0.545 µM	0.984 µM
CC(=O)OC(CCC1(C)OC1COc1ccc(CCNC(=O)c2ccccc2)cc1)C(C)(C)OC(C)=O (stereo not drawn)	> 100 µM	31.4 µM	–	> 100 µM	> 100 µM	30.1 µM	> 100 µM	–	36.7 µM	–	–	–	–	–	–	–	–	–	–	–
S=c1cc(S)sc2c1c(=S)sc1nc3ccccn3c(=S)c12	> 100 µM	> 100 µM	> 100 µM	> 100 µM	–	> 100 µM	> 100 µM	–	92.1 µM	–	–	–	–	–	–	–	–	–	–	–
O=C(Nc1ccccc1)NS(=O)(=O)c1ccc(-n2nc3c(c2-c2ccc(Cl)cc2)Cc2ccccc2-3)cc1	74.4 µM	30.6 µM	–	46.4 µM	> 100 µM	> 100 µM	78.1 µM	52.7 µM	85.1 µM	–	18.3 µM	12.2 µM	–	53.9 µM	34.5 µM	18.2 µM	16.8 µM	22.3 µM	–	15.3 µM
C1CCN(c2nc(=[N+]3CCCCC3)ss2)CC1	> 100 µM	> 100 µM	> 100 µM	> 100 µM	> 100 µM	> 100 µM	> 100 µM	–	> 100 µM	–	–	–	–	–	–	–	–	–	–	–
